Holding throughout (format): functional
A short description of assay [1]: Antiproliferative activity against human NCI-ADR-RES cells assessed as concentration required for total cell growth inhibition after 48 hrs by SRB assay. In general terms: Sulforhodamine B stains cellular protein and so reports cell mass.
A further assay has as its system MCF7. Briefly: Antiproliferative activity against human MCF7 cells assessed as concentration required for total cell growth inhibition after 48 hrs by SRB assay. The conditions noted are these: MCF7, 48 h.
A further assay has as its system U-251. Briefly: Antiproliferative activity against human U251 cells assessed as concentration required for total cell growth inhibition after 48 hrs by SRB assay. The conditions noted are these: U-251, 48 h.
In the next assay the test system is UACC-62. As to the kind of experiment: Antiproliferative activity against human UACC62 cells assessed as concentration required for total cell growth inhibition after 48 hrs by SRB assay. The conditions noted are these: UACC-62, 48 h.
Another assay has as its system HaCaT. As to the kind of experiment: Antiproliferative activity against human HaCaT cells assessed as concentration required for total cell growth inhibition after 48 hrs by SRB assay.
Another assay concerns HT-29. As to the kind of experiment: Antiproliferative activity against human HT-29 cells assessed as concentration required for total cell growth inhibition after 48 hrs by SRB assay. The conditions noted are these: HT-29, 48 h.
For a further assay, the system named is K562. Briefly: Antiproliferative activity against human K562 cells assessed as concentration required for total cell growth inhibition after 48 hrs by SRB assay. The conditions noted are these: K562, 48 h.
The test system of another assay is PC-3. Briefly: Antiproliferative activity against human PC3 cells assessed as concentration required for total cell growth inhibition after 48 hrs by SRB assay. The conditions noted are these: PC-3, 48 h.
The test system of another assay is 786-0. Briefly: Antiproliferative activity against human 786-0 cells assessed as concentration required for total cell growth inhibition after 48 hrs by SRB assay. The conditions noted are these: 786-0, 48 h.

Experimental findings from ChEMBL document CHEMBL2412995, “Design, synthesis and in vitro evaluation against human cancer cells of 5-methyl-5-styryl-2,5-dihydrofuran-2-ones, a new series of goniothalamin analogues” (2013) are described below.

In general, TGI refers to the concentration giving total growth inhibition. Consider `CC1(/C=C/c2cccc(O)c2)C=CC(=O)O1` (stereo not given), for which the TGI is 647 µM in [1]; 124 µM in the assay on MCF7; 118 µM with U-251; 108 µM in the assay on UACC-62; 88.1 µM in the assay with HaCaT; 97.4 µM in the assay with HT-29. The TGI was above 1000 µM in the assay on K562, 98.8 µM in the assay with PC-3 and 196 µM in the assay on 786-0.
Consider `CC1(/C=C/c2ccccc2)C=CC(=O)O1` (stereo not given), for which the TGI in assay [1] turned out to be 414 µM; in the assay on MCF7 it was 95.3 µM; in the assay on U-251, 89.8 µM; with UACC-62 it was 97.2 µM; in the assay with HaCaT it was 119 µM; in the assay with HT-29 it was 123 µM. The TGI with K562 is above 1000 µM; in the assay with PC-3 it was 86.9 µM; with 786-0, 170 µM.
Regarding `C[C@]1(/C=C/c2ccccc2)CC=CC(=O)O1`, the TGI worked out at 107 µM in assay [1]; 48 µM in the assay with MCF7; 27.5 µM with U-251; 37.2 µM in the assay on UACC-62; 50.7 µM in the assay on HaCaT; 41.1 µM in the assay with HT-29. For the same compound, the TGI is above 1000 µM with K562, 31.7 µM with PC-3 and 68.7 µM in the assay with 786-0.
As for `COc1cccc(/C=C/C2(C)C=CC(=O)O2)c1` (stereo not given), the TGI in assay [1] turned out to be 48.6 µM; in the assay with MCF7, 25.3 µM; in the assay with U-251 it was 37.6 µM; in the assay on UACC-62, 55.8 µM; in the assay on HaCaT, 5.7 µM; with HT-29 it was 17 µM. The TGI is above 1000 µM with K562, 31.6 µM in the assay on PC-3 and 70 µM in the assay with 786-0.
Turning to `CC1(/C=C/c2ccc(C(F)(F)F)cc2)C=CC(=O)O1` (stereo not given), the TGI in assay [1] worked out at 9.4 µM; in the assay with MCF7, 20.4 µM; in the assay with U-251 it was 15.7 µM; in the assay on UACC-62 it was 15.5 µM; in the assay with HaCaT it was 12.1 µM; in the assay with HT-29, 12.3 µM. Besides, the total growth inhibition concentration (TGI) was found to be 652 µM in the assay on K562, 13.1 µM with PC-3 and 34 µM in the assay on 786-0.
Turning to `COc1ccc(/C=C/C2(C)C=CC(=O)O2)c(OC)c1` (stereo not given), the concentration for total growth inhibition (TGI) in assay [1] was 151 µM; in the assay with MCF7 it was 43.5 µM; in the assay on U-251, 62.8 µM; with UACC-62, 80.1 µM; with HaCaT it was 53.6 µM; with HT-29, 57.5 µM. For the same compound, the total growth inhibition concentration (TGI) is above 1000 µM in the assay on K562, 63.5 µM in the assay with PC-3 and 108 µM in the assay on 786-0.
Take `COc1cc(/C=C/C2(C)C=CC(=O)O2)cc(OC)c1O` (stereo not given): the TGI was determined as 51.6 µM in [1]; 45.3 µM with MCF7; 40.7 µM with U-251; 24.6 µM in the assay on UACC-62; 64.4 µM with HaCaT; 19.1 µM with HT-29. Moreover, the TGI with K562 is above 1000 µM; with PC-3, 131 µM; in the assay on 786-0 it was 108 µM.
Regarding `CC1(/C=C/c2ccccc2O)C=CC(=O)O1` (stereo not given), the TGI was 78 µM in assay [1]; 46.2 µM in the assay with MCF7; 70.9 µM with U-251; 92.5 µM with UACC-62; 57.3 µM with HaCaT; 31.3 µM in the assay on HT-29. Further, the TGI was above 1000 µM in the assay with K562, 112 µM with PC-3 and 136 µM with 786-0.
Turning to `COc1cc(/C=C/C2(C)C=CC(=O)O2)cc(OC)c1OC` (stereo not given), the TGI worked out at 123 µM in assay [1]; 56.6 µM in the assay with MCF7; 125 µM in the assay with U-251; 178 µM in the assay with UACC-62; 175 µM with HaCaT; 390 µM with HT-29. Moreover, the TGI in the assay with K562 was above 1000 µM; in the assay with PC-3 it was 131 µM; with 786-0, 116 µM.
In the case of `COc1ccc(/C=C/C2(C)C=CC(=O)O2)cc1OC` (stereo not given), the total growth inhibition concentration (TGI) was 111 µM in assay [1]; 78.9 µM with MCF7; 192 µM in the assay on U-251; 84.1 µM in the assay with UACC-62; 838 µM with HaCaT; 927 µM in the assay on HT-29. In addition, the results for the TGI with K562, with PC-3 and with 786-0 were above 1000 µM, 176 µM and 22.9 µM, respectively.
Take `COc1ccccc1/C=C/C1(C)C=CC(=O)O1` (stereo not given): the TGI is 64.5 µM in assay [1]; 27 µM in the assay on MCF7; 41.1 µM in the assay with U-251; 31 µM with UACC-62; 30.8 µM with HaCaT; 30.8 µM in the assay with HT-29. The TGI was 860 µM in the assay on K562, 34.2 µM with PC-3 and 35.4 µM in the assay with 786-0.
In the case of `CC1(/C=C/c2ccc(O)cc2)C=CC(=O)O1` (stereo not given), the TGI in assay [1] was found to be 111 µM; in the assay with MCF7, 69.1 µM; in the assay with U-251 it was 107 µM; with UACC-62, 55.3 µM; in the assay on HaCaT, 81.2 µM; with HT-29, 122 µM. Besides, the total growth inhibition concentration (TGI) with K562 was above 1000 µM; in the assay with PC-3 it was 138 µM; with 786-0 it was 143 µM.
Turning to `COc1cc(OC)c(/C=C/C2(C)C=CC(=O)O2)c(OC)c1` (stereo not given), the total growth inhibition concentration (TGI) in [1] stood at 229 µM; in the assay on MCF7 it was 102 µM; in the assay on U-251, 193 µM; with UACC-62, 208 µM; in the assay on HaCaT, 458 µM; in the assay on HT-29 it was 127 µM. Besides, the TGI in the assay on K562 is above 1000 µM; with PC-3 it was 239 µM; in the assay with 786-0, 459 µM.
As for `COc1cccc2c1C(=O)c1c(O)c3c(c(O)c1C2=O)C[C@@](O)(C(=O)CO)C[C@@H]3O[C@H]1C[C@H](N)[C@H](O)[C@H](C)O1` [DOXORUBICIN], the TGI in [1] stood at 10.3 µM; with MCF7, 4.9 µM; in the assay on U-251, 2.1 µM; in the assay with UACC-62 it was 0.2 µM; in the assay with HaCaT, 0.4 µM; with HT-29, 3.6 µM. For the same compound, the TGI in the assay with K562 came out at 45.5 µM; in the assay with PC-3, 2.5 µM; in the assay with 786-0, 1 µM.
As for `O=C1C=CC[C@H](/C=C/c2ccccc2)O1` [GONIOTHALAMIN], the total growth inhibition concentration (TGI) in assay [1] was found to be 14.5 µM; in the assay on MCF7, 11.2 µM; with U-251 it was 9.8 µM; with UACC-62, 17.4 µM; in the assay on HaCaT, 13.4 µM; with HT-29, 10 µM. The TGI came to 927 µM in the assay on K562, 9.6 µM with PC-3 and 13.9 µM with 786-0.
In the case of `COc1ccc(/C=C/C2(C)C=CC(=O)O2)c(OC)c1OC` (stereo not given), the total growth inhibition concentration (TGI) in [1] was found to be 349 µM; with MCF7, 110 µM; in the assay on U-251, 87.2 µM; in the assay with UACC-62, 71.5 µM; in the assay on HaCaT it was 217 µM; in the assay on HT-29, 133 µM. The TGI with K562 is above 1000 µM; with PC-3 it was 90 µM; with 786-0 it was 132 µM.
Take `CC1(/C=C/c2ccccc2C(F)(F)F)C=CC(=O)O1` (stereo not given): the TGI in assay [1] was 12.2 µM; in the assay with MCF7 it was 13.5 µM; with U-251, 14.1 µM; with UACC-62, 17.7 µM; in the assay with HaCaT, 12.7 µM; with HT-29 it was 15.8 µM. Further, the figures for the TGI in the assay with K562, in the assay with PC-3 and in the assay on 786-0 were 573 µM, 17.9 µM and 27.9 µM, respectively.
For the compound `CC1(/C=C/c2ccc(F)cc2)C=CC(=O)O1` (stereo not given), the TGI stood at 25.7 µM in [1]; 38.5 µM in the assay on MCF7; 60.8 µM with U-251; 55.3 µM with UACC-62; 47.5 µM with HaCaT; 34.9 µM in the assay on HT-29. In addition, the TGI in the assay on K562 is above 1000 µM; in the assay with PC-3 it was 46.5 µM; with 786-0, 101 µM.
Consider `COc1ccc(/C=C/C2(C)C=CC(=O)O2)cc1` (stereo not given), for which the TGI is above 1000 µM in assay [1]; 183 µM in the assay with MCF7; 127 µM with U-251; 147 µM in the assay with UACC-62; 316 µM in the assay on HaCaT; 92.9 µM in the assay on HT-29. Also, the TGI with K562 was above 1000 µM; in the assay on PC-3, 145 µM; in the assay on 786-0, above 1000 µM.
For `COc1cc(OC)c(OC)cc1/C=C/C1(C)C=CC(=O)O1` (stereo not given), the TGI in assay [1] was 158 µM; with MCF7, 144 µM; in the assay on U-251, 160 µM; in the assay on UACC-62 it was 127 µM; with HaCaT, 180 µM; with HT-29 it was 127 µM. Moreover, the results for the TGI in the assay with K562, in the assay with PC-3 and with 786-0 were above 1000 µM, 184 µM and 205 µM, respectively.
